Laboratory results as given in US20260176320A1, “MODULATORS OF G-PROTEIN COUPLED RECEPTORS” (priority 2018, published 2026).
Where two headings read alike, the source gives them in different places.

What was measured:
GIP-R = target: T1, GIP-R (Homo sapiens, UniProt P48546); assay: HitHunter cAMP assay (GIP-R); assay type: cell-based; conditions: cAMP; for EC50: EC50 GIP-R/nM; for Emax: read-out: (Emax) GIP-R
T1 sequence (P48546 22-466): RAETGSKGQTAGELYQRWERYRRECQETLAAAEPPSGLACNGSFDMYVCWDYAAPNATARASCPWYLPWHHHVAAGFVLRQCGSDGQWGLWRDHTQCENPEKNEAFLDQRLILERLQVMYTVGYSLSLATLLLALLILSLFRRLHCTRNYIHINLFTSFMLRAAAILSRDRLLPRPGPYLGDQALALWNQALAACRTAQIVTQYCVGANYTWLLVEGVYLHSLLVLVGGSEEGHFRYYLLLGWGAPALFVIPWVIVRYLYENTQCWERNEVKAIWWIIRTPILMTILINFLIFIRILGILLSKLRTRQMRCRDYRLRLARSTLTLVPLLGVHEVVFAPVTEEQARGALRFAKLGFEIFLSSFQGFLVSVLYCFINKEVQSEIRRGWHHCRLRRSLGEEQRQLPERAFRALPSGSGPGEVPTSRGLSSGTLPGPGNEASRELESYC
In short: (§1)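 Suspension cells (10,000/well) in HBSS with 10 mM HEPES, 625 μM IBMX, 0.2% BSA exposed to 22-point 2-fold agonist series in duplicate for 30 min at room temperature. cAMP measured by antibody immunocompetition with overnight development, luminescence read-out.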

GLP-1R = GLP-1R (Homo sapiens, UniProt P43220); assay: HitHunter cAMP assay (GLP-1R); assay type: cell-based; conditions: cAMP; for EC50: EC50 GLP-1R/nM; for Emax: read-out: (Emax) GLP-1R
Chain of GLP-1R (P43220 24-463): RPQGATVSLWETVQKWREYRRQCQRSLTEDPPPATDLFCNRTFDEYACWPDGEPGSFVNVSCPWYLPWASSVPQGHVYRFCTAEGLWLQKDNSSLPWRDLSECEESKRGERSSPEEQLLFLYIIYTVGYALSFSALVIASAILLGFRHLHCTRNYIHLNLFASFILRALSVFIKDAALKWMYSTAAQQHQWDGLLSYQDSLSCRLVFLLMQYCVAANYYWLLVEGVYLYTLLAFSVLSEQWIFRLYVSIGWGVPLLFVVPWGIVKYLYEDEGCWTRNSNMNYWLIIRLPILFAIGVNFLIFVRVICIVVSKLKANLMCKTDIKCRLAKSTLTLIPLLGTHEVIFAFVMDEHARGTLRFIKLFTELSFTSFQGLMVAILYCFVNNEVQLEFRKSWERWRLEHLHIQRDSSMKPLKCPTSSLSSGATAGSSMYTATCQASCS
In short: as §1

SMILES	EC50 (GIP-R; Table 3) [nM]	EC50 (GIP-R; Table 3A) [nM]	Emax (GIP-R; Table 3) [%]	Emax (GIP-R; Table 3A) [%]	EC50 (GLP-1R; Table 3) [nM]	EC50 (GLP-1R; Table 3A) [nM]	Emax (GLP-1R; Table 3) [%]	Emax (GLP-1R; Table 3A) [%]	Emax at 1 µM (GIP-R; read-out: (Emax) GIP-R at 1 μM, Table 3, at 1 μM) [%]	Emax at 1 µM (GLP-1R; read-out: (Emax) GLP-1R at 1 μM, Table 3) [%]	Emax at 1 µM (GLP-1R; read-out: (Emax) GLP-1R at 1 μM, Table 3A) [%]
CC[C@H](C)[C@H](NC(=O)[C@H](CO)NC(=O)[C@H](Cc1ccc(O)cc1)NC(=O)[C@H](CC(=O)O)NC(=O)[C@H](CO)NC(=O)[C@@H](NC(=O)[C@H](Cc1ccccc1)NC(=O)[C@@H](NC(=O)CNC(=O)[C@H](CCC(=O)O)NC(=O)C(C)(C)C(=O)NCCN1C(=O)c2ccc(C)cc2C1=O)[C@@H](C)O)[C@@H](C)O)C(=O)N[C@@H](Cc1ccc(O)cc1)C(=O)N[C@@H](CC(C)C)C(=O)N[C@@H](CC(=O)O)C(=O)N[C@@H](CCCCN)C(=O)N[C@@H](CCC(N)=O)C(=O)N[C@@H](C)C(=O)N[C@@H](C)C(=O)NC(C)(C)C(=O)N[C@@H](CCC(=O)O)C(=O)N[C@@H](Cc1ccccc1)C(=O)N[C@H](C(=O)N[C@@H](CC(N)=O)C(=O)N[C@@H](Cc1c[nH]c2ccccc12)C(=O)N[C@@H](CC(C)C)C(=O)N[C@@H](CC(C)C)C(=O)N[C@@H](C)C(=O)NCC(=O)NCC(=O)N1CCC[C@H]1C(=O)N[C@@H](CO)C(=O)N[C@@H](CO)C(=O)NCC(=O)N[C@@H](C)C(=O)N1CCC[C@H]1C(=O)N1CCC[C@H]1C(=O)N1CCC[C@H]1C(=O)N[C@@H](CO)C(=O)N[C@@H](CCCCN)C(N)=O)C(C)C [Compound 127]	1 to 10	1 to 10	98 to 102	98 to 102	1 to 10	1 to 10	95 to 107	95 to 107			
CC[C@H](C)[C@H](NC(=O)[C@H](CO)NC(=O)[C@H](Cc1ccc(O)cc1)NC(=O)[C@H](CC(=O)O)NC(=O)[C@H](CO)NC(=O)[C@@H](NC(=O)[C@H](Cc1ccccc1)NC(=O)[C@@H](NC(=O)CNC(=O)[C@H](CCC(=O)O)NC(=O)CSCC(=O)NCCN1C(=O)CC(c2ccccc2)C1=O)[C@@H](C)O)[C@@H](C)O)C(=O)N[C@@H](Cc1ccc(O)cc1)C(=O)N[C@@H](CC(C)C)C(=O)N[C@@H](CC(=O)O)C(=O)N[C@@H](CCCCN)C(=O)N[C@@H](CCC(N)=O)C(=O)N[C@@H](C)C(=O)N[C@@H](C)C(=O)NC(C)(C)C(=O)N[C@@H](CCC(=O)O)C(=O)N[C@@H](Cc1ccccc1)C(=O)N[C@H](C(=O)N[C@@H](CC(N)=O)C(=O)N[C@@H](Cc1c[nH]c2ccccc12)C(=O)N[C@@H](CC(C)C)C(=O)N[C@@H](CC(C)C)C(=O)N[C@@H](C)C(=O)NCC(=O)NCC(=O)N1CCC[C@H]1C(=O)N[C@@H](CO)C(=O)N[C@@H](CO)C(=O)NCC(=O)N[C@@H](C)C(=O)N1CCC[C@H]1C(=O)N1CCC[C@H]1C(=O)N1CCC[C@H]1C(=O)N[C@@H](CO)C(=O)N[C@@H](CCCCN)C(N)=O)C(C)C (mixture of isomers) [Compound 105]	10 to 100				10 to 100	10 to 100	90	90	< 10		
CC[C@H](C)[C@H](NC(=O)[C@H](CO)NC(=O)[C@H](Cc1ccc(O)cc1)NC(=O)[C@H](CC(=O)O)NC(=O)[C@H](CO)NC(=O)[C@@H](NC(=O)[C@H](Cc1ccccc1)NC(=O)[C@@H](NC(=O)CNC(=O)[C@H](CCC(=O)O)NC(=O)CSCC(=O)NCCN1C(=O)c2cccc([N+](=O)[O-])c2C1=O)[C@@H](C)O)[C@@H](C)O)C(=O)N[C@@H](Cc1ccc(O)cc1)C(=O)N[C@@H](CC(C)C)C(=O)N[C@@H](CC(=O)O)C(=O)N[C@@H](CCCCN)C(=O)N[C@@H](CCC(N)=O)C(=O)N[C@@H](C)C(=O)N[C@@H](C)C(=O)NC(C)(C)C(=O)N[C@@H](CCC(=O)O)C(=O)N[C@@H](Cc1ccccc1)C(=O)N[C@H](C(=O)N[C@@H](CC(N)=O)C(=O)N[C@@H](Cc1c[nH]c2ccccc12)C(=O)N[C@@H](CC(C)C)C(=O)N[C@@H](CC(C)C)C(=O)N[C@@H](C)C(=O)NCC(=O)NCC(=O)N1CCC[C@H]1C(=O)N[C@@H](CO)C(=O)N[C@@H](CO)C(=O)NCC(=O)N[C@@H](C)C(=O)N1CCC[C@H]1C(=O)N1CCC[C@H]1C(=O)N1CCC[C@H]1C(=O)N[C@@H](CO)C(=O)N[C@@H](CCCCN)C(N)=O)C(C)C [Compound 108]	10 to 100	10 to 100	69	69	> 1000	> 1000				18	18
